According to article PMC7460544, “Prenylated Flavonoids from the Roots of Tephrosia rhodesica” (Journal of Natural Products, 2020):

Key:
[1] = tested on: chloroquine-sensitive (3D7) strain of Plasmodium falciparum; assay: asexual P. falciparum imaging growth inhibition assay (antiplasmodial activity); format: cell-based; conditions: for antiplasmodial activity in words: P. falciparum 3D7
HEK 293 mammalian cells = assay: cytotoxicity against HEK 293 mammalian cells (LD50); format: cell-based; conditions: single experiment

Row | SMILES | antiplasmodial activity in words [1] | LD50 (HEK-293), given as % at 40 μM (HEK 293 mammalian cells) | IC50 ([1]; Plasmodium falciparum, 3D7, read-out: IC50, μM (Pf3D7)) | LD50 (HEK-293) (HEK 293 mammalian cells)
1 | CC(C)=CCC1(CC=C(C)C)C(=O)[C@](O)(CC=C(C)C)C(=O)C2=C1O[C@H](c1ccccc1)C[C@H]2O [Rhodiflavan B (3), 4,6-dihydroxy-6,8,8-tris(3-methylbut-2-en-1-yl)-2-phenyl-2,3,4,8-tetrahydro-5H-chromene-5,7(6H)-dione] | moderate activities | 34% at 40 μM |  | 
2 | CC(C)=CCC1(CC=C(C)C)C(=O)C(=O)C2=C1O[C@H](c1ccccc1)C[C@H]2O (relative stereo) [Rhodiflavan C (4), (2S*,4R*)-4-hydroxy-7,7-bis(3-methylbut-2-en-1-yl)-2-phenyl-2,3,4,7-tetrahydrocyclopenta[b]pyran-5,6-dione] | moderate activities | 101% at 40 μM |  | 
3 | CC(C)=CCC1(CC=C(C)C)C(=O)[C@@](O)(CC=C(C)C)C(=O)C2=C1O[C@H](c1ccccc1)C[C@H]2O [Rhodiflavan A (2), 4,6-dihydroxy-6,8,8-tris(3-methylbut-2-en-1-yl)-2-phenyl-2,3,4,8-tetrahydro-5H-chromene-5,7(6H)-dione] | moderate activities |  |  | 
4 | COc1cc(OC)c2c(c1CC=C(C)C)O[C@H](c1ccccc1)C[C@H]2OC [Quercetol B (9), quercetol B] | moderate activities | 87% at 40 μM |  | 
5 | CC(C)=CCc1cc2c(cc1O)OC[C@@]1(O)c3cc4c(cc3O[C@@H]21)OCO4 [Rhodacarpin (5), (6aS,12aS)-2-(3-methylbut-2-en-1-yl)-6H-[1,3]dioxolo[4′,5′:5,6]benzofuro[3,2-c]chromene-3,6a(12aH)-diol] | moderate activities | 27% at 40 μM |  | 
6 | CCN(CC)CCCC(C)Nc1ccnc2cc(Cl)ccc12 (stereo not drawn) [Chloroquine, reference compound] |  |  | 0.0047 µM | 
7 | C=C(C)[C@H]1Cc2c(ccc3c2O[C@@H]2C(O)Oc4cc(OC)c(OC)cc4[C@@H]2C3=O)O1 (stereo partly drawn) [6-Hydroxyrotenone (15), 6-hydroxyrotenone] | moderate activities |  |  | 10.9 µM
